Tests used:
Assay in all cases: Kinase panel enzymatic inhibition assay (Nanosyn)
Type in all cases: biochemical
Conditions in all cases: compound 5 μM; ATP at Km; 30-minute pre-incubation
ARAF = molecular target: T1, ARAF (Homo sapiens, UniProt P10398)
T1 construct: purchased Nanosyn (contract screening)
T1 sequence (P10398 1-606): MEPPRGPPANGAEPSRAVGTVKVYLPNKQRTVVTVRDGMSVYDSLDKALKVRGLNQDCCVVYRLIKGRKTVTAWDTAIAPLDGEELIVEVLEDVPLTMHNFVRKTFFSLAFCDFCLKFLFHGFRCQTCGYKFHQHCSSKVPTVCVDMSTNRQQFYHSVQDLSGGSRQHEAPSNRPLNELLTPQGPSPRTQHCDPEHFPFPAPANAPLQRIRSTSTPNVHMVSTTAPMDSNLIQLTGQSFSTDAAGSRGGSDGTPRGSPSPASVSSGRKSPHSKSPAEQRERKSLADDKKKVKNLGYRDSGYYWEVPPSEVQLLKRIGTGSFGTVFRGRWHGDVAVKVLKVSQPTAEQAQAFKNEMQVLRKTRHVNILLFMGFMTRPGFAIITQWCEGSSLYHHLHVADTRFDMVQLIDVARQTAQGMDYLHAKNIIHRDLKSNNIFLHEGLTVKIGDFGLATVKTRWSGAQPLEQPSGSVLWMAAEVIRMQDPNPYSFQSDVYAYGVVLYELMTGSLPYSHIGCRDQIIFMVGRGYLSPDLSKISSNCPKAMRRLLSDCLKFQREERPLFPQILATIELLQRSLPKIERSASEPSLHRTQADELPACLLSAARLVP
Protocol: (§1) The disclosed compounds were tested for activity against a panel of at least 300 kinases. Kinase panel screening was conducted by Nanosyn (Santa Clara, CA 95051) using an enzymatic inhibition assay accepted as valid by those skilled in the art (e.g., the Caliper LabChip® mobility shift assay, an ADP detection assay, or time-resolved fluorescence detection technology. Compounds were screened at a concentration of 5 μM using an ATP concentration at the Km for each of the respective kinases and a 30-minute pre-incubation time-point.
(§2) In Table 1 and 2, kinase inhibition is classified by: A=95% or greater, B=90%-94%, C=80%-89%, and D=79% and less with a compound concentration of 5 JIM. In Table 3 and 4, kinase inhibition is reported in terms of IC50 values corresponding to A=less than 500 nm, B=500 nm to less than 1 μM, C=1 μM to less than 10 μM, and D=10 μM or greater using a compound concentration of 5 μM.

Abl2 = molecular target: T2, Abl2 (Homo sapiens, UniProt P42684)
T2 construct: purchased Nanosyn (contract screening)
Protocol: as §1, §2

BLK = molecular target: T3, BLK (Homo sapiens, UniProt P51451)
T3 construct: purchased Nanosyn (contract screening)
Protocol: as §1, §2

COT1 = molecular target: T4, COT1 (Homo sapiens, UniProt P41279)
T4 construct: purchased Nanosyn (contract screening)
T4 sequence (P41279 whole entry): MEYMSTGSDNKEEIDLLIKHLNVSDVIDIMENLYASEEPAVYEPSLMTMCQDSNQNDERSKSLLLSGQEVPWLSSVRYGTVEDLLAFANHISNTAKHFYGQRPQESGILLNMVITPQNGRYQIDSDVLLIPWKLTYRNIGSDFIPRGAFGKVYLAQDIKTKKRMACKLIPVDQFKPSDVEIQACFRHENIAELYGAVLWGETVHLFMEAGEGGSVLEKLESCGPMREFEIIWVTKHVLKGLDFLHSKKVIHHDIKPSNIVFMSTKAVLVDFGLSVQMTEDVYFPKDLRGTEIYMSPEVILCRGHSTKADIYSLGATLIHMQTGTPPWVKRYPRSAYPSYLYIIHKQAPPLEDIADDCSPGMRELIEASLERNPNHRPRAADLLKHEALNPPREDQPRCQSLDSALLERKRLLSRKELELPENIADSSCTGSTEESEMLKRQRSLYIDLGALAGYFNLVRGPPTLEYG
Protocol: as §1, §2

CRAF = molecular target: T5, CRAF (Homo sapiens, UniProt P04049)
T5 construct: purchased Nanosyn (contract screening)
Protocol: as §1, §2

EPH = tested on: EPH
Protocol: as §1, §2

FGR = molecular target: T6, FGR (Homo sapiens, UniProt P09769)
T6 construct: purchased Nanosyn (contract screening)
Protocol: as §1, §2

FYN = molecular target: T7, FYN (Homo sapiens, UniProt P06241)
T7 construct: purchased Nanosyn (contract screening)
T7 sequence (P06241 whole entry): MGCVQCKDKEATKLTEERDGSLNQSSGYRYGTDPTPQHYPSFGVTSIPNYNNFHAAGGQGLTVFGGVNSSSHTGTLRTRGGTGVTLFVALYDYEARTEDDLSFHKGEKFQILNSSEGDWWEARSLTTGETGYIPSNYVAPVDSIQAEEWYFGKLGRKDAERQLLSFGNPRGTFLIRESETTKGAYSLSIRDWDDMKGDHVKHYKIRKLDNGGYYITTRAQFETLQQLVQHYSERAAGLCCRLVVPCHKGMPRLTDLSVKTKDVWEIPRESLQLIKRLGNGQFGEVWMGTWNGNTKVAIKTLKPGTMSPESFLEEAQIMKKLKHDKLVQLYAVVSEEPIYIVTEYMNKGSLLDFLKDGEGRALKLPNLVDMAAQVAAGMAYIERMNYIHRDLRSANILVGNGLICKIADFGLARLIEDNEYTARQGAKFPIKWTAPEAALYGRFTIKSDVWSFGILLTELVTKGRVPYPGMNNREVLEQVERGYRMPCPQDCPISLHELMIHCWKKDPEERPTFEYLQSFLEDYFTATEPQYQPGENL
Protocol: as §1, §2

KDR = molecular target: T8, KDR (Homo sapiens, UniProt P35968)
T8 construct: purchased Nanosyn (contract screening)
T8 sequence (P35968 20-1356): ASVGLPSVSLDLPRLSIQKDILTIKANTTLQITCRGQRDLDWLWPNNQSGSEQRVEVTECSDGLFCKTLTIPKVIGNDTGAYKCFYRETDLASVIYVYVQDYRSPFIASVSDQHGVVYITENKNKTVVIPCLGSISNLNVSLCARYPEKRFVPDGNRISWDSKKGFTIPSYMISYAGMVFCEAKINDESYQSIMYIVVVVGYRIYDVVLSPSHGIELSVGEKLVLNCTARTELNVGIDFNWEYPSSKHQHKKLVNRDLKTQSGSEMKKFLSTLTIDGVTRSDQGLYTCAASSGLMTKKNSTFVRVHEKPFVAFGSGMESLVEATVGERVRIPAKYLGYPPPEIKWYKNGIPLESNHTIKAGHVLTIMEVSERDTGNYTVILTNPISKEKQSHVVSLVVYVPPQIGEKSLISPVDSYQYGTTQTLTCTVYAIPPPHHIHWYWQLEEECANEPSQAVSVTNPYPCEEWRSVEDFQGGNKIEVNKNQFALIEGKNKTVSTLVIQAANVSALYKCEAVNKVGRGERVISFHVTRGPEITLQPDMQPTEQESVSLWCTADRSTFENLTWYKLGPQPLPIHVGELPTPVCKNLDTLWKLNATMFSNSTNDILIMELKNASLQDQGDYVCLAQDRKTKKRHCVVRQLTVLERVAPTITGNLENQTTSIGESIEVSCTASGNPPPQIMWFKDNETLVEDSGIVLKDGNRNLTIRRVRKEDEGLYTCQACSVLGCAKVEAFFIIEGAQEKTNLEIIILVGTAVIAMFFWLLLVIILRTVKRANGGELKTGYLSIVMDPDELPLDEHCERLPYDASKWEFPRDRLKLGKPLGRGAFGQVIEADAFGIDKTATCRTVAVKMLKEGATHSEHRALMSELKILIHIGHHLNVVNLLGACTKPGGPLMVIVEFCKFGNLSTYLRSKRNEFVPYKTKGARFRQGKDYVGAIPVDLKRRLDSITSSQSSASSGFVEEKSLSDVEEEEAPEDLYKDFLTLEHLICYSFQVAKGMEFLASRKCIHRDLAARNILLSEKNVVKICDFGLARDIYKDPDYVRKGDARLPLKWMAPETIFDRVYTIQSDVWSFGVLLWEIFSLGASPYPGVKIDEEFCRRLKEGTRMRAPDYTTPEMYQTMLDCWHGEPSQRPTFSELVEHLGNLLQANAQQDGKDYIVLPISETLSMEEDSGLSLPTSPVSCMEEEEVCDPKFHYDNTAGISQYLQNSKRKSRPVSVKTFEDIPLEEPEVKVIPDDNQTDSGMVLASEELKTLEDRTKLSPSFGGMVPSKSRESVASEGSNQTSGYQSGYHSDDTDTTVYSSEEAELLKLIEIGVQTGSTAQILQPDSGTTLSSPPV
Protocol: as §1, §2

LYNa = molecular target: T9, LYNa (Homo sapiens, UniProt P07948)
T9 construct: purchased Nanosyn (contract screening)
T9 sequence (P07948 whole entry): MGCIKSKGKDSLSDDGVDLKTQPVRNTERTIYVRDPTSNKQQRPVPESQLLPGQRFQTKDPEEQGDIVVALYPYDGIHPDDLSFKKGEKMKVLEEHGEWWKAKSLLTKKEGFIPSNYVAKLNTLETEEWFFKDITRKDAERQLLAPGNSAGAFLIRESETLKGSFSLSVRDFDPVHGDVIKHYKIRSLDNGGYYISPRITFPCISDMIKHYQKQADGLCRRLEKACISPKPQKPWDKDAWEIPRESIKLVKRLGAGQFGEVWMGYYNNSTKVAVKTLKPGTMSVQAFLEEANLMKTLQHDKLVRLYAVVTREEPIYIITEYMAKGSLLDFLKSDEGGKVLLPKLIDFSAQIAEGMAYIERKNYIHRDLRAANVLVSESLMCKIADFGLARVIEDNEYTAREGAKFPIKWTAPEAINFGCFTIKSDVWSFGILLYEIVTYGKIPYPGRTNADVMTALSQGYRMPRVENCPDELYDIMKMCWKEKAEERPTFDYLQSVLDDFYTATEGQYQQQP
Protocol: as §1, §2

LYNb = molecular target: T10, LYNb (Homo sapiens, UniProt P07948)
T10 construct: purchased Nanosyn (contract screening)
Protocol: as §1, §2

MNK2 = molecular target: T11, MNK2 (Homo sapiens, UniProt Q9HBH9)
T11 construct: Nanosyn (contract laboratory that ran the panel)
Protocol: as §1, §2

PIKfyve = molecular target: T12, PIKfyve (Homo sapiens, UniProt Q9Y2I7)
T12 construct: Nanosyn (contract laboratory that ran the panel)
T12 sequence (Q9Y2I7 whole entry): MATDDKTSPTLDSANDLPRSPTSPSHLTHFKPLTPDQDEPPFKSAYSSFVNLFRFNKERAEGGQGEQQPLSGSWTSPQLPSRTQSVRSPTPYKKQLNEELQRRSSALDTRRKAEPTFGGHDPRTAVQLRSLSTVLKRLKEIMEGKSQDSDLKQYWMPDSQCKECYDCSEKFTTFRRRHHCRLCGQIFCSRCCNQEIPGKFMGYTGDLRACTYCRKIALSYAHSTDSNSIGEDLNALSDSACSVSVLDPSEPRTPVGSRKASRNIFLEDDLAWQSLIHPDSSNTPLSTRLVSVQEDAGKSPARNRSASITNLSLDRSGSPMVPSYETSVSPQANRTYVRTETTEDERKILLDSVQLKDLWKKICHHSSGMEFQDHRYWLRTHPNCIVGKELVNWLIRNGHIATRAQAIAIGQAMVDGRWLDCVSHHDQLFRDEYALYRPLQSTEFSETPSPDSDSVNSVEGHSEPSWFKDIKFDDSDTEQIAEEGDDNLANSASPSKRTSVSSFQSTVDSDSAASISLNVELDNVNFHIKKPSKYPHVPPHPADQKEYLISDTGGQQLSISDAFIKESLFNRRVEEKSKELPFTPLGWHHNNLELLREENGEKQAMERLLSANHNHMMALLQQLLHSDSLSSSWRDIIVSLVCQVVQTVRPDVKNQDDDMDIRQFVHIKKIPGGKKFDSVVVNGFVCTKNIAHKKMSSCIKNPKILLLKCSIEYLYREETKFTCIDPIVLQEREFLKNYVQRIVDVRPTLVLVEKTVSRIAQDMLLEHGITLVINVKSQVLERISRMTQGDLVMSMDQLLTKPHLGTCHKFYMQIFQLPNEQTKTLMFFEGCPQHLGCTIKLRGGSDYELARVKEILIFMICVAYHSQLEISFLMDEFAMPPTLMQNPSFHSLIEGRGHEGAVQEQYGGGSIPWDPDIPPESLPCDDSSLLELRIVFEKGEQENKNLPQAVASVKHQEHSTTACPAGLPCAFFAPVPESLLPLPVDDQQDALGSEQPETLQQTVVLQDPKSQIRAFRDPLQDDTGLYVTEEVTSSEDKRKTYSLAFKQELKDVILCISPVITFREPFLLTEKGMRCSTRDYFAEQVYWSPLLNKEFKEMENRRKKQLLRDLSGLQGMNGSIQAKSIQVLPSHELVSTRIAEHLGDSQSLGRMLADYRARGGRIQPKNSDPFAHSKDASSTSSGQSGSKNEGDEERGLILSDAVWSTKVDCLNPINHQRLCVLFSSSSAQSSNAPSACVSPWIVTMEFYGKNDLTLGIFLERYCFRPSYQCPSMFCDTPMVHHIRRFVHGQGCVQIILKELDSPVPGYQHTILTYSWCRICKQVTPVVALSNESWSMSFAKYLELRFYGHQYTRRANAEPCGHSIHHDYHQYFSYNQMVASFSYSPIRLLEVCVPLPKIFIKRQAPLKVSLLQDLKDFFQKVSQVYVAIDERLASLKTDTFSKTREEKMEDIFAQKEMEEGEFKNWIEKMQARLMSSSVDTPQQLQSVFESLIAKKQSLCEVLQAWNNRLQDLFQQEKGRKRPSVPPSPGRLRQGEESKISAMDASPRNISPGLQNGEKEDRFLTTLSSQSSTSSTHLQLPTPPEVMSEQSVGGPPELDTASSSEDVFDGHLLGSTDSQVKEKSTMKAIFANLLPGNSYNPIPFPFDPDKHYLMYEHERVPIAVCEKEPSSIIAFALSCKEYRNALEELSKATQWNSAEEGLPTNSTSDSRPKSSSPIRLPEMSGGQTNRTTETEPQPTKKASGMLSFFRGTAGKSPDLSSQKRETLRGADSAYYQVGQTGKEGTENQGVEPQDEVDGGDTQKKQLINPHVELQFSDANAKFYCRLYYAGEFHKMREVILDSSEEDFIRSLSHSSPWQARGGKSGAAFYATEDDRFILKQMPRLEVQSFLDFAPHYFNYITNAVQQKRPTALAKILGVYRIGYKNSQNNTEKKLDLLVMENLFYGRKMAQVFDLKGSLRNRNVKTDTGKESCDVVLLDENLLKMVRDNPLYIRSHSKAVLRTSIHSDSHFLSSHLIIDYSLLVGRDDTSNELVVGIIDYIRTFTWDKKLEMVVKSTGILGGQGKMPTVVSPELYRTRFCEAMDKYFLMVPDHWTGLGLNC
Protocol: as §1, §2

RET = molecular target: T13, RET (Homo sapiens, UniProt P07949)
T13 construct: Nanosyn (contract laboratory that ran the panel)
Protocol: as §1, §2

SGK2 = molecular target: T14, SGK2 (Homo sapiens, UniProt Q9HBY8)
T14 construct: Nanosyn (contract laboratory that ran the panel)
T14 sequence (Q9HBY8 1-367): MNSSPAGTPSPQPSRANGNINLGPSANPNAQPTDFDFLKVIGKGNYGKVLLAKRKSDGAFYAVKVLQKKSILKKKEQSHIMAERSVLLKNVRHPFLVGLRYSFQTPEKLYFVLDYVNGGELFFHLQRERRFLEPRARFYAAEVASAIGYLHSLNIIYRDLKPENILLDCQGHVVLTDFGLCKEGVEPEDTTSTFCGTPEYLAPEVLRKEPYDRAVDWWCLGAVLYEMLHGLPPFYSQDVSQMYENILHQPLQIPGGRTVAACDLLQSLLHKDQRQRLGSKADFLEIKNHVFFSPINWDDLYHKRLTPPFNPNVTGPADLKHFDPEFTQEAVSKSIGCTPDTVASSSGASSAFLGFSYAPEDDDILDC
Protocol: as §1, §2

SGK3 = molecular target: T15, SGK3 (Homo sapiens, UniProt Q96BR1)
T15 construct: Nanosyn (contract laboratory that ran the panel)
T15 sequence (Q96BR1 1-496): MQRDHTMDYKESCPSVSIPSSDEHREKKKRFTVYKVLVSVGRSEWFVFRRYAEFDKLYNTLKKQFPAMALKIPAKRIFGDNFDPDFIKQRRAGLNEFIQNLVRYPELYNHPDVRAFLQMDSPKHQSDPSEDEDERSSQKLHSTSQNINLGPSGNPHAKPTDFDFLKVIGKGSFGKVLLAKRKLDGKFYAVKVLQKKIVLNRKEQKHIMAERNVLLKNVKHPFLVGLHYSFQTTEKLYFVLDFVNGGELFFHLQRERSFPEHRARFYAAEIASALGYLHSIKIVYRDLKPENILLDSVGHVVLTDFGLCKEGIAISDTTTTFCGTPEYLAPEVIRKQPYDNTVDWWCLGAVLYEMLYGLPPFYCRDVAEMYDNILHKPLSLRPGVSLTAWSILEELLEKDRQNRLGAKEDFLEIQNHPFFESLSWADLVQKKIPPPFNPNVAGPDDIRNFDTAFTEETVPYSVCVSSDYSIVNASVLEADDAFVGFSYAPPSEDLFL
Protocol: as §1, §2

ZAK = molecular target: T16, ZAK (Homo sapiens, UniProt Q9NYL2)
T16 construct: Nanosyn (contract laboratory that ran the panel)
Protocol: as §1, §2

p38b = molecular target: T17, p38b (Homo sapiens, UniProt Q15759)
T17 construct: Nanosyn (contract laboratory that ran the panel)
Protocol: as §1, §2

SMILES | inhibition at 5 µM (ARAF) [%] | inhibition at 5 µM (Abl2) [%] | inhibition at 5 µM (BLK) [%] | inhibition at 5 µM (COT1) [%] | inhibition at 5 µM (CRAF) [%] | kinase inhibition, EPH (EPH) | inhibition at 5 µM (FGR) [%] | inhibition at 5 µM (FYN) [%] | inhibition at 5 µM (KDR) [%] | inhibition at 5 µM (LYNa) [%] | inhibition at 5 µM (LYNb) [%] | inhibition at 5 µM (MNK2) [%] | inhibition at 5 µM (PIKfyve) [%] | inhibition at 5 µM (RET) [%] | inhibition at 5 µM (SGK2) [%] | inhibition at 5 µM (SGK3) [%] | inhibition at 5 µM (ZAK) [%] | inhibition at 5 µM (p38b) [%]
Cc1ccc(NC(=O)c2cc([S+](C)[O-])n(-c3ccc(F)cc3)n2)cc1-c1cc(N2CCOCC2)c(=O)n(C)c1 (stereo not drawn) [Ex11, 1-(4-fluorophenyl)-N-(4-methyl-3-(1-methyl-5-morpholino-6-oxo-1,6-dihydropyridin-3-yl)phenyl)-5-(methylsulfinyl)-1H-pyrazole-3-carboxamide] | ≥ 95 | < 79 | < 79 | < 79 | ≥ 95 | D (D=79% and less) | < 79 | < 79 | < 79 | < 79 | < 79 | < 79 | < 79 | < 79 | < 79 | < 79 | < 79 | < 79
CNC(=O)c1cc(Oc2ccc(NC(=O)c3cc(S(C)(=O)=O)n(-c4ccc(F)cc4)n3)c(F)c2)ccn1 [Ex17, 4-(3-fluoro-4-(1-(4-fluorophenyl)-5-(methylsulfonyl)-1H-pyrazole-3-carboxamido)phenoxy)-N-methylpicolinamide] | < 79 | < 79 | < 79 | < 79 | < 79 | D (D=79% and less) | < 79 | < 79 | < 79 | < 79 | < 79 | < 79 | < 79 | < 79 | < 79 | < 79 | < 79 | < 79
CNC(=O)c1cc(Oc2ccc(F)c(NC(=O)c3cc([S+](C)[O-])n(-c4ccc(F)cc4)n3)c2)ccn1 (stereo not drawn) [Ex7, 4-(4-fluoro-3-(1-(4-fluorophenyl)-5-(methylsulfinyl)-1H-pyrazole-3-carboxamido)phenoxy)-N-methylpicolinamide] | < 79 | < 79 | < 79 | < 79 | ≥ 95 | D (D=79% and less) | < 79 | < 79 | < 79 | < 79 | < 79 | < 79 | < 79 | < 79 | < 79 | < 79 | < 79 | < 79
Cc1ccc(NC(=O)c2cc(S(C)(=O)=O)n(-c3ccc(F)cc3)n2)cc1-c1cc(OCCO)nc(N2CCOCC2)c1 [Ex9, 1-(4-fluorophenyl)-N-(3-(2-(2-hydroxyethoxy)-6-morpholinopyridin-4-yl)-4-methylphenyl)-5-(methylsulfonyl)-1H-pyrazole-3-carboxamide] | ≥ 95 | < 79 | < 79 | < 79 | ≥ 95 | D (D=79% and less) | < 79 | < 79 | < 79 | < 79 | < 79 | < 79 | < 79 | < 79 | < 79 | < 79 | < 79 | 80 to 89
Cc1ccc(NC(=O)c2cc(S(C)(=O)=O)n(-c3ccc(F)cc3)n2)cc1C#Cc1cnc2cccnn12 [Ex14, 1-(4-fluorophenyl)-N-(3-(imidazo[1,2-b]pyridazin-3-ylethynyl)-4-methylphenyl)-5-(methylsulfonyl)-1H-pyrazole-3-carboxamide] | ≥ 95 | ≥ 95 | 80 to 89 | < 79 | ≥ 95 | D (D=79% and less) | 80 to 89 | 90 to 94 | 90 to 94 | ≥ 95 | ≥ 95 | < 79 | 80 to 89 | 80 to 89 | < 79 | < 79 | 80 to 89 | < 79
Cc1ccc(NC(=O)c2cc(S(C)(=O)=O)n(-c3ccc(F)cc3)n2)cc1-c1cc(N2CCOCC2)c(=O)n(C)c1 [Ex12, 1-(4-fluorophenyl)-N-(4-methyl-3-(1-methyl-5-morpholino-6-oxo-1,6-dihydropyridin-3-yl)phenyl)-5-(methylsulfonyl)-1H-pyrazole-3-carboxamide] | ≥ 95 | < 79 | < 79 | < 79 | ≥ 95 | D (D=79% and less) | < 79 | < 79 | < 79 | < 79 | < 79 | < 79 | < 79 | < 79 | < 79 | < 79 | < 79 | < 79
